Experimental data as given in a melting point compilation (Tetko et al.; mined from patent text by program, amines drawn as free bases though some values may be those of a salt).

Structure (SMILES)	melting point [°C]
O=c1c2c(Cl)cc(Cl)cc2[nH]c2c(O)nn(-c3ccccc3)c(=O)c12	361 to 363
CN(C)CCn1c(=O)c2c3oc4ccccc4oc3c3[nH]c4cc(O)ccc4c3c2c1=O	> 360
CCOC(=O)c1cc2c(C)noc2nc1C(=O)OCC	95 to 99
O=C(c1ccc(Cl)cc1)c1ccc2c(c1)C(c1cccc(Cl)c1)SCc1nnnn1-2 (centres undefined)	212
COc1cccc(NC(=O)NCc2cccc3c2CN(C2CCC(=O)NC2=O)C3=O)c1 (centres undefined)	340 to 342
C#Cc1ccc(-c2nc(-c3ccccc3)nc(-c3ccc(C#C)cc3)n2)cc1	215
NC(=O)c1ccc2c(c1)CCOC2CCN1CCN(c2ccc(Cl)cc2)CC1 (centres undefined)	169 to 171
CCOC(=O)C(=NOC)C1=CSCCS1	65 to 67
CCOC(=O)c1ccc2nc3sc(C(C)C)cc3c(=O)n2c1	122 to 123
COC(=O)CSCc1cnc(OC)c([N+](=O)[O-])c1	57 to 60
CC1CCN(c2ccc(N)cc2C(O)c2ccc(Cl)cc2)CC1 (centres undefined)	89
C=C(C)COc1ccc(NC(C)=O)c(C)c1C	154 to 156
CCOC(=O)/C=C(C)/C=C/C=C(\C)C1=Cc2cc(C)cc(C)c2OC1	122
Cc1nc2c3c(c(C(=O)N(C)CC(C)O)cc2n1C)CCC1(Cc2ccccc2C1)N3 (centres undefined)	258 to 259
C#CCc1c(C)nc2c(OCc3ccncc3C)cccn12	156 to 157
CC(C)(C)OC(=O)Nc1ccc(-c2ccc(OC(F)(F)F)cc2)cc1[N+](=O)[O-]	145 to 147
CC(C)Oc1cc(-n2c(=O)c3c(n(C)c2=O)CCCC3)c(F)cc1Cl	143 to 145
N#Cc1ccc(N2C(=O)N(CCO)C3(CCOCC3)C2=O)cc1C(F)(F)F	196 to 197
O=c1c2sccc2nc(CNc2ccccc2F)n1-c1ccccc1Cl	175 to 176
CCOCc1nc2c(N)nc(C)c(C)c2n1CCCCNS(C)(=O)=O	165 to 167
COc1ccc2c(=O)cc(-c3ccc(F)cc3)oc2c1	162
COC(=O)c1c(Nc2ccccc2)nn(C(C)=O)c1C	115 to 116
Clc1ccc(SC(CCc2ccccc2)Cn2ccnc2)cc1Cl (centres undefined)	145 to 147
O=C1c2ccccc2C(=O)N1C[C@@H]1CCC=CO1	87 to 88
CCOC(=O)Cc1ccc(NC(=O)Nc2ccccc2OC)cc1	107 to 109

Structure (SMILES)	melting point [°C]
O=C(O)Cc1ccccc1Sc1ccc(F)c(Cl)c1	85 to 87
Brc1ccc(C=Cc2cccc3ccccc23)cc1	106
COC1CCN(C(=O)COc2cc(-c3ccccc3)nc3ccccc23)CC1	96
COC1CCN(S(=O)(=O)c2ccc(S(N)(=O)=O)cc2)CC1	153 to 154
COc1cccc2c1CC(CC=O)C2=O (racemic)	71
OC(c1ccc(Cl)cc1)(c1ccc(Cl)cc1)c1nccn1COCc1ccccc1	139 to 141
CC(C)c1cc(O)cc(C(C)C)c1NC(=O)CN1CCN(CCSc2nc3ccccc3o2)CC1	162 to 164
CCOC(=O)c1c(C(F)(F)F)nc(C(F)F)c(C(=O)O)c1NC1CC1	120 to 122
Cc1ccc(-c2ccccc2C(=O)Nc2ccc(C(=O)N(CCO)c3ccccc3C)cc2)cc1	115 to 118
O=C(O)Cc1ccc2ncsc2c1	147 to 149
COc1cccc([C@H]2O[C@H](CC(=O)Nc3cccc(CCC(=O)O)c3)C(=O)N(CC(C)(C)C)c3ccc(Cl)cc32)c1OC	172 to 173
COC(COC(=O)C1=C(C)NC2=C(C(=O)CNC2)C1c1cccc(Cl)c1C)c1ccccc1 (centres undefined)	160 to 163
Cc1nc(Cn2nc(C(F)(F)F)cc2C(F)(F)F)ccc1NC(=O)c1cccc(Cl)c1C(=O)N[C@@H](C)CS(C)=O (some centres undefined)	183
CSc1cc(C)nc(SC)c1NC(=O)CSc1nc2ccccc2o1	203 to 205
C=CCc1cc(C(=O)OC)ccc1-c1ccc(OC)c(OC)c1	99 to 103
Cc1ccc(-c2nc3ccccc3nc2-c2ccc(C)cc2)cc1	149
CN(C)CCCNc1ncc2c(n1)-c1ccccc1C(c1ccc(Cl)c(Cl)c1)C2 (centres undefined)	59 to 62
COc1cccc([C@H]2O[C@H](CC(=O)NCCCOc3ccc(CC(=O)O)cc3)C(=O)N(CC(C)(C)CO)c3ccc(Cl)cc32)c1OC	125 to 128
N#CCSc1ncc2ccccn12	120 to 122
Cc1sc(C(N)=O)c2c1-c1c(cnn1CC(F)(F)F)CC2	144 to 145
Cn1ccc2cc(-c3cc4nccnc4[nH]3)ccc21	260 to 265
Clc1ccc(Cl)c(-c2csc(NC3=NCCCN3)n2)c1	188 to 189
Cc1cn(C2CCN(c3c(F)cc4c(=O)c(C(=O)O)cn(C5CC5)c4c3F)C2)nn1 (centres undefined)	219 to 220
O=C(Nc1ccc(N2CCOCC2)c(C(F)(F)F)c1)c1ccc(F)c(OCc2cnc3ccccc3c2)c1	81 to 84
